Reference: patent publication US20230390272A1 (PRILENIA NEUROTHERAPEUTICS LTD., priority 2020, published 2023)
“And” between values parts separate entries of the source, which are not always exact repeats. Equal values may be shown once. Read-outs that look alike come from different tables or passages of the source. Blank lines part the entries; values can stand above or below the compound they belong to.

Experiments:
[1] = molecular target: Sigma-1 Receptor (S1R) (Homo sapiens (Human), UniProt Q99720); assay: In-vitro binding assay, Sigma-1 receptor; conditions: for S1R fold selectivity (S2R/S1R): ratio S2R Ki/S1R Ki
Sigma-1 Receptor (S1R), sequence (Q99720 whole entry, species assumed): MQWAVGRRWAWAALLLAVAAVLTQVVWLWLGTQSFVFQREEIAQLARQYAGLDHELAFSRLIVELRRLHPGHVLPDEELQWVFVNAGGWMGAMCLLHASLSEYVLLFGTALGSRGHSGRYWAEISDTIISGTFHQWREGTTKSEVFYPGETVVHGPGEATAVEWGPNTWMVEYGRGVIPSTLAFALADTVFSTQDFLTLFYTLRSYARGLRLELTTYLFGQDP
Method: (§1) In-vitro binding assays performed at Eurofins Panlabs Taiwan, Ltd. Specific ligand binding was determined in the presence of an excess of unlabelled ligand.

[2] = molecular target: Sigma-2 receptor (S2R) (Homo sapiens (Human), UniProt Q5BJF2); assay: In-vitro binding assay, Sigma-2 receptor; conditions: Cheng Prusoff equation
Sigma-2 receptor (S2R), sequence (Q5BJF2 whole entry, species assumed): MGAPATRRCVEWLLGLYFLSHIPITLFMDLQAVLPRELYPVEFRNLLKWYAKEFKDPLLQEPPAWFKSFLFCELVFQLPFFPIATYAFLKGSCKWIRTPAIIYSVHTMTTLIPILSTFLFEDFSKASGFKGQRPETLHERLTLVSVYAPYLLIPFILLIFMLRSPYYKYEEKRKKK
Method: as §1

[3] = system: B104 neuroblastoma cells; assay: BDNF release from B104 cells, in-situ ELISA; format: cell-based, rat; conditions: 5 days, vs untreated control
[4] = system: YAC128 HD mice
Method: (§2) Animals. […] Mice were bred at the Biological Resource Centre (Agency for Science, Technology and Research, ASTAR), and group-housed with littermates of mixed genotype. Animals were maintained under a 12-h light cycle (lights on at 09:00) in a clean facility, and given free access to food and water. Experiments were performed with the approval of the Institutional Animal Care and Use Committee at the Biomedical Sciences Institute (ASTAR) and in accordance with their approved guidelines.
(§3) Animals were weighed every two weeks to ensure the correct dose was maintained.
(§4) Mice were divided into three groups. […] One cohort was behaviorally tested every two months commencing at 2 months of age. Mice were tested for psychiatric function (open field, elevated plus maze, and forced swim test). Tests were conducted at a set time during the day, prior to drug administration.

[5] = system: YAC128 HD mice; conditions: early treatment from 1.5 months, 30 mg/kg
Method: as §2, §3, §4
Anxiety-like behavioral tests. The open-field (OF) and elevated plus maze (EPM) tests are used to assess anxiety-like behavioral in rodents. The time spent in the center of the arena in the OF and the time spent in the open arms of the maze in the EPM are considered measures of anxiety-like behavior.

[6] = system: Sprague-Dawley male rats; conditions: FST day 8
Description: On day 8, rats were again placed in a water tank, and time spent immobile measured.
Sprague-Dawley male rats, 6 weeks old were used. Rats were pre-tested on day 1 to ensure stable and high duration of immobility during the 5-min test session.

[7] = system: Male NMRI mice; conditions: 30 min before test
Description: Animals were assigned according to the experimental plan to one of the 4 test boxes run simultaneously.
The number of marbles covered by sawdust were counted. The experimenter also observed the animals for obvious inhibition of general activity (locomotor activity).

[8] = system: HD patients; conditions: 45 mg bid
Description: PBA-S includes behavioral assessments of depressed mood, anxiety, apathy and irritability.
The lack of initiative subscale of the PBA-S is a measure of apathy in HD patients. Apathy is a symptom common to HD and depression.
The Problem Behaviors Assessment-Short (PBA-s) scale, is a measure of psychiatric symptoms including anxiety, depression and apathy. The PBA-s is an interview designed specifically for rating the severity and frequency of behavioral abnormalities in HD. PBA-S includes behavioral assessments of depressed mood, anxiety, apathy and irritability. This scale is widely used in HD clinical trials and recommended as a measure of screening behavioral symptoms, including depression and anxiety. […] The lack of initiative subscale of the PBA-S is a measure of apathy in HD patients. Apathy is a symptom common to HD and depression.

[9] = system: Male Sprague-Dawley rats; conditions: 30 mg/kg p.o., 30 min and 120 min after administration
Method: Male Sprague-Dawley rats (270-400 g bodyweight) were housed in groups of two in a temperature (20±2° C.) and humidity (50-60%) controlled colony room under a non-reversed 12 (6-18 on)/12 h light-dark cycle with food and water ad libitum except during the actual experiments. 4 rats were used for each drug dose and the vehicle-treated control group.
USV was recorded by a microphone and processed by an interface to select USV signals and to digitize the resulting signals for automatic processing. In the priming phase, each rat was placed in the test chamber. After a 2 min time period, a series of at most ten shocks (trials), 1.8 mA for 0.3 s, separated by 20 s shock-free intervals, was delivered via the grid floor of the test chamber. In the shock-free intervals the occurrence of ultrasonic vocalization (22±5 kHz) was automatically recorded, and the duration of ultrasonic vocalization was calculated immediately. The priming session was terminated either when the rat constantly vocalized at least for 10 s on three consecutive trials or after the tenth trial. Rats not responding with USV on three consecutive trials were excluded from the test. In the actual test performed on the next day, each rat received 5 initial shocks (1.8 mA for 0.3 s, separated by 20 s shock-free intervals) in the test chamber, and the duration of USV (22+4 kHz) was recorded during the following 3 min period.

[10] = system: rodents exhibiting symptoms of anxiety; conditions: periodic administration, paper example
[11] = system: patient diagnosed with anxiety or depression; conditions: periodic administration, intravenous or oral, paper example
[12] = molecular target: D3Rs (Homo sapiens (Human), UniProt P35462); conditions: cited from earlier work
D3Rs, sequence (P35462 whole entry): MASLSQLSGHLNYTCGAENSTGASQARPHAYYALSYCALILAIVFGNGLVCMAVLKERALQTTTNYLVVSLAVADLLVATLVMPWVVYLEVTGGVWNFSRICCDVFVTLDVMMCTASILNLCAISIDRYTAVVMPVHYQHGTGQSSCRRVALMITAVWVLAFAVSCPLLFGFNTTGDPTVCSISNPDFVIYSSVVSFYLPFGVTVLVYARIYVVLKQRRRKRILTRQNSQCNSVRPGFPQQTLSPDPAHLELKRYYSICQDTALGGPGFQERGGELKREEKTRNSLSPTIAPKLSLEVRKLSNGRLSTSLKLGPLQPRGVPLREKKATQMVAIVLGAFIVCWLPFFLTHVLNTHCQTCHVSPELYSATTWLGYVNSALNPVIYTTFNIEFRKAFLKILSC

[13] = molecular target: D2Rs (Homo sapiens (Human), UniProt P14416); conditions: cited from earlier work
D2Rs, sequence (P14416 whole entry): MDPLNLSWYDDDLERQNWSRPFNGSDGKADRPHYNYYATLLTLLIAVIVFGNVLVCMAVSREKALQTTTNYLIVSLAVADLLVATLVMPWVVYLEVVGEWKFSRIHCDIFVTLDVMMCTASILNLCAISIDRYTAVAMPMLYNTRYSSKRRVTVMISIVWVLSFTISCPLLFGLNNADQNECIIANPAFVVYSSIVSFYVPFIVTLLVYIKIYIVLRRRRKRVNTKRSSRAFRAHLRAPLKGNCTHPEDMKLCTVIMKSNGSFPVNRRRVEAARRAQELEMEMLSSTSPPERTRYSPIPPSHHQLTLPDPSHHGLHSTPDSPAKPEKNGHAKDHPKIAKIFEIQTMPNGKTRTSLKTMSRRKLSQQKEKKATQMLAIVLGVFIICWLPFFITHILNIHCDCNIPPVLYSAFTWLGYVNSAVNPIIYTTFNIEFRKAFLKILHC

SMILES: CCCN1CCC(c2cccc(S(C)(=O)=O)c2)CC1 [Pridopidine, 4-[3-(methylsulfonyl)phenyl]-1-propyl-piperidine]
Ki ([1]; Cheng Prusoff equation): 57 nM
Ki [2]: 5450 nM
increase in BDNF secretion ([3]; pridopidine 0.001 μM alone): 13.6% and 13.5%
increase in BDNF secretion ([3]; pridopidine 0.005 μM alone): 26%
increase in BDNF secretion ([3]; pridopidine 0.01 μM alone): 3.4%
time spent immobile in forced swim test ([4]; early treatment from 1.5 months, 30 mg/kg, 12 months of age): reduced the time spent immobile
depressive-like behavior, immobility time in forced swim test ([4]; late (manifest) treatment from 8 months, escalating to 30 mg/kg oral gavage): significantly improves depressive-like phenotype
time spent in the center of the arena (open field) ([5]; tested at 6 months): increased the time spent in the center of the arena
time spent in the open arms (elevated plus maze) ([5]; tested at 8 months): decreased anxiety-like behavior
decrease in immobility time ([6]; 3 mg/kg oral gavage daily for 7 days): 38%
decrease in immobility time ([6]; 15 mg/kg oral gavage daily for 7 days): 58%
inhibition of marble-burying ([7]; 1 mg/kg p.o.): 8%
inhibition of marble-burying ([7]; 3 mg/kg p.o.): 49%
inhibition of marble-burying ([7]; 10 mg/kg p.o.): 62%
inhibition of marble-burying ([7]; 30 mg/kg p.o.): 73%
PBA-S change from baseline vs placebo ([8]; week 52, p=0.0603): −2.13 units
PBA-S lack of initiative measure, change from baseline vs placebo ([8]; week 52, p=0.0704): −1.27 units
effect on USV duration [9]: significantly inhibited USV
efficacy in treating anxiety [10]: effective in treating anxiety
efficacy in treating patient with anxiety or depression [11]: effective in treating the patient
higher affinity towards the S1R vs D3Rs [12]: ~30 fold
higher affinity towards the S1R vs D2Rs [13]: ~500 fold

SMILES: CCCN1CCC(O)(c2cccc(S(C)(=O)=O)c2)CC1 [Compound 1]
S1R fold selectivity (S2R/S1R) [1]: >270 fold
increase in BDNF secretion ([3]; Compound 1 1 μM alone): 12.5%

S1R fold selectivity (S2R/S1R) [1]: >35 fold
SMILES: CCCN1CC[C@@H](c2cccc(S(C)(=O)=O)c2)[C@@H](O)C1 [Compound 4]
change in BDNF secretion ([3]; Compound 4 0.001 μM alone): −1.5%
